The text below walks through data of patent publication US5716934A, “Eck receptor ligands” (Amgen Inc., priority 1995, dated 1998).

For this assay, the system named is granulation tissue in subcutaneously implanted wound chambers. Put plainly: Rat wound chamber assay (granulation tissue formation). It counts as in vivo. The conditions noted are these: for DNA / HYDROXY-PROLINE / TOTAL GYLCOSAMINO-GLYCANS / TOTAL PROTEIN / WET WEIGHT: harvest day 12, mean ± SEM; for increase in hydroxyproline: not statistically significant. The protocol: Male Sprague-Dawley specific pathogen free rats (300-350 g; Charles River Breeding Laboratories, Inc.) were used for this study. Rats were anesthetized with sodium pentobarbital (50 mg/kg body weight) by intraperitoneal injection. Using aseptic surgical technique, a 3 cm midline incision was made on the dorsal surface of the rat. A single pocket was formed under the panniculus carnosis by blunt dissection on one side of the animal. A 3 cm long×1 cm diameter sterile stainless steel wire mesh cylinder was then inserted subcutaneously. The wound chambers used were similar to those described by Schilling et. al. (Surgery 46, 702-710 (1959)) and utilized by Hunt et. al. (Am. J. Surg. 114, 302-307 (1967)) as wound healing models. The incision was closed with wound clips. The rats survived the operation well with no evidence of postoperative discomfort. Beginning 3 days after wound chamber implantation, the rats were randomly divided into 5 groups. At this time daily injections of 1) 10 μg CHO-derived EBP, 2) 1 μg CHO-derived EBP, 3) 8 μg E. coli derived EBP, 4) 5 μg recombinant platelet derived growth factor (PDGF), or 5) 0.1 ml sterile PBS and 1 mM CHAPS were begun and continued for a total of 9 days. The injections were made directly into the wound chamber through a silicone septum at the outer edge of the chamber. Twelve days after chamber implantation, the rats were sacrificed by CO2 asphyxiation. Immediately after sacrifice, the chambers were removed surgically and carefully opened. The enclosed granulation tissue was then weighed, and stored at -70° C. for future processing.
Granulation tissue samples were thawed and homogenized with a Polytron homogenizer in 2 ml of ice-cold distilled water for approximately 1 minute. Next, 2 ml of ice-cold 10% trichloroacetic acid was added to the homogenate and incubated at 4° C. for 1 hour. The TCA-precipitated samples were centrifuged (500 g, 10 minutes) at 4° C., washed once with 2 ml of ice-cold 5% TCA, and finally washed with 2 ml of ice-cold 95% ethanol containing 50 mM sodium acetate. Samples were defatted twice with 2 ml of ethanol:ether (3:1, v/v) at 20° C. After each defatting procedure, samples were centrifuged (500×g, 10 minutes) and the supernate discarded. The pellet was then dissolved in 1N sodium hydroxide and brought up to a volume of 10 ml.
Total protein was determined by taking an aliquot of the solubilized granulation tissue and assaying the sample according to the method of Bradford (Anal. Biochem. 72, 248-251 (1976)) Bovine serum albumin (Sigma Chemical Co., St. Louis, Mo.) was used for a protein standard curve.
Total DNA content was determined as deoxy-ribose by the colorimetric method of Burton (Biochem. J. 62, 315 (1956)). Briefly, a 1 ml aliquot of the solubilized sample (in 1N NaOH) was neutralized with the addition of 0.5 ml of 2N HCl. A 1 ml aliquot of the neutralized solution was extracted in 10% perchloric acid at 90° C. for 15 minutes. A 1 ml portion of the final extract was added to 2 ml activated diphenylamine (Sigma Chemical, St. Louis, Mo.) reagent and absorbance at 600 nm was measured after overnight incubation at room temperature. Hydrolyzed calf thymus DNA (Sigma) was used to construct the standard curve. The DNA content was measured as a rough index of the number of cells in the wound chamber, with the realization that cell type and cell cycle status also influence DNA content.
Total glycosaminoglycans (GAGs) were determined using chondroitin sulfate as a standard. A spectrophotometric assay for GAGs was run utilizing a change in absorption spectrum of the dye 1,9- dimethyl methylene blue (Farndale et al. Conn. Tiss. Res. 9, 247-248 (1982)).
Total collagen content was determined as hydroxyproline (an index of collagen content) after hydrolysis of the solubilized granulation tissue in 6N HCl at 110° C. for 24 hours. […]

The mark [1] stands for this setting: 1 μg per chamber per day x 9 days.
[2] abbreviates: 1 μg per chamber per day x 9 days, listed as CHO-derived rEBP.
Where [3] appears, read: 10 μg per chamber per day x 9 days.
Where [4] appears, read: 10 μg per chamber per day x 9 days, listed as CHO-derived rEBP.

With “CHO-EBP: recombinant EBP purified from supernatants of CHO cells transfected with the EBP gene; mainly EBP^1-150 and EBP^1-159”, the DNA by setting is: under setting [1], 232 ± 41 µg; under setting [2], “no significant differences”; under setting [3], 650 ± 163 µg; under setting [4], “significantly increased”. The HYDROXY-PROLINE under setting [1] was determined as 318.7 ± 31.7 µg, the HYDROXY-PROLINE result under setting [2] is listed as “no significant differences” and the HYDROXY-PROLINE under setting [3] came to 354.5 ± 63.7 µg. The “TOTAL GYLCOSAMINO-GLYCANS” value was 589.2 ± 68.4 µg under setting [1], “significant increase” under setting [2], 627.9 ± 92.4 µg under setting [3] and “significantly increased” under setting [4]. The “TOTAL PROTEIN” value runs as follows: under setting [1], 3.88 ± 0.44 mg; under setting [2], “no significant differences”; under setting [3], 7.15 ± 1.23 mg; under setting [4], “significantly increased”. Moreover, the “WET WEIGHT” value by setting is: under setting [1], 238.0 ± 24.1 mg; under setting [2], “significant increase”; under setting [3], 398.2 ± 70.9 mg; under setting [4], “significantly increased”. Besides, the increase in hydroxyproline by setting is: (1 μg/chamber/day) 21%; (10 μg/chamber/day) 35%.
